Assay [1] deals with T1, N-terminal His-tagged TYK2 pseudokinase domain (Homo sapiens, UniProt P29597).
T1 construct: the N-terminal His-tagged TYK2 pseudokinase domain; His (N); purchased Pharmaron
The assay can be described thus: TYK2 JH2 domain SPA binding assay. Conditions: displacement of H3 probe (20 nM), 30 min room temperature; class symbols. As for the experimental part:
TYK2 JH2 Domain Binding Assay
After incubating at room temperature for 30 min, the inhibition was calculated by the displacement of [3H] 3 binding as determined by scintillation counting. Dose-response curves were generated to determine the concentration required to inhibit H3 probe binding by […] (IC50).

Assay [2] deals with IL-23 induced STAT3 in HEK-Blue™ IL-23 cells. Put plainly: IL-23 induced STAT3 QUANTI-Blue reporter assay in HEK-Blue IL-23 cells. It is filed as cell-based. As to conditions: IL-23 0.1 ng/mL, SEAP levels, read-out: IL23 reporter assay (IC50 nM). As for the experimental part:
Biological Example 2. IL-23 Induced STAT3 QUANTI-Blue in HEK-Blue™ IL-23 Cells
HEK-Blue™ IL-23 cells were prepared at 2×10^5 cells/ml for adding 5000 cell/well and incubate plates containing compounds+cells for 1 hour at 37° C. Prepare IL-23 (treatment at final conc. 0.1 ng/mL) during incubation and add 2 ul per well of prepared cytokine in media to appropriate wells. The plate is incubated for overnight at 37° C. The next day, QUANTI-Blue solution is prepared. 18 ul of QUANTI-Blue solution per well is added into a new 384-well clear flat bottom plate, then add 2 ul of induced and treated HEK-Blue cell supernatant from overnight plate. Incubate the plate at 37° C. for 2 hours and determine SEAP levels.
In general terms: A reporter such as luciferase makes a cellular process visible.

[3] abbreviates: HEK-Blue IL-23 cells, class symbols.
[4] abbreviates: HEK-Blue IL-23, HEK-Blue IL-23 cells, class symbols.

Where two headings read alike, the source gives them in different places.

For orientation: IC50 means the midpoint of a concentration-inhibition curve.

T1 sequence (P29597 589-875 limits assumed): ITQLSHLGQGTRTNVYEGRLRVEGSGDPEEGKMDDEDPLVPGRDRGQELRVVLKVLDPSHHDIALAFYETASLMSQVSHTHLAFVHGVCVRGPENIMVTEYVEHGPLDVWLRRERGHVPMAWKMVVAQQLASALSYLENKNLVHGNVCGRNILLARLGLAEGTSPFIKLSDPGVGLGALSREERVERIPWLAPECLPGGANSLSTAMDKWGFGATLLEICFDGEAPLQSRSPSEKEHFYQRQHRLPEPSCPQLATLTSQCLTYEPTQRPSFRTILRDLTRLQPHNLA

With `CNc1cc(Nc2cccn(-c3ccccn3)c2=O)nn2c(C(=O)NC3CCC4CCOC43)cnc12` (racemic) [Compound 10b, N-(hexahydro-2H-cyclopenta[b]furan-6-yl)-8-(methylamino)-6-((2-oxo-2H-[1,2′-bipyridin]-3-yl)amino)imidazo[1,2-b]pyridazine-3-carboxamide], the results for the half-maximal inhibitory concentration (IC50) in assay [1] and in assay [2] (setting [3]) were above 1000 nM and at least 1000 nM, respectively.

On to `CNc1cc(Nc2cccc(N3CCCC3=O)n2)nn2c(C(=O)NC3CCn4ccnc43)cnc12` (racemic) [Compound 29], for which the half-inhibitory concentration (IC50) in assay [1] and in assay [2] (setting [4]) was below 10 nM in each case.

Consider `[2H]C([2H])([2H])Nc1cc(Nc2cccn(-c3ccn(C)n3)c2=O)nn2c(C(=O)N[C@@H]3C[C@@H]3F)cnc12` [Compound 57], for which the IC50 in assay [1] and in assay [2] (setting [4]) was 10 to 100 nM throughout.

Take `CNc1cc(Nc2cccn(C3CC4CCOC43)c2=O)nn2c(C(=O)N[C@@H]3C[C@@H]3F)cnc12` (single isomer, unassigned) [Compound 105b]: the IC50 in assay [1] is 100 to 1000 nM; in assay [2] (setting [3]) it was 10 to 100 nM.

Take `CNc1cc(Nc2cccn(C3CCOCC3)c2=O)nn2c(C(=O)N[C@@H]3C[C@H]4CCO[C@H]43)cnc12` [Compound 66]: the IC50 in assay [1] is 10 to 100 nM; in assay [2] (setting [4]), below 10 nM.

`[2H]C([2H])([2H])Nc1cc(Nc2cccn([C@H]3C[C@H](OC([2H])([2H])[2H])C3)c2=O)nc2c(C(=O)N[C@@H]3C[C@H]4CCO[C@H]43)cnn12` [Compound 19, N-((1R,5S,7R)-2-oxabicyclo[3.2.0]heptan-7-yl)-5-((1-((1r,3r)-3-(methoxy-d3)cyclobutyl)-2-oxo-1,2-dihydropyridin-3-yl)amino)-7-((methyl-d3)amino)pyrazolo[1,5-a]pyrimidine-3-carboxamide]: the IC50 in assay [1] and in assay [2] (setting [4]) was 10 to 100 nM in each case.

With `CNc1cc(Nc2cccc(C)n2)nc2c(C(=O)NC3CCn4ncnc43)cnn12` (racemic) [Compound 33], the IC50 in assay [1] is 10 to 100 nM; in assay [2] (setting [4]), below 10 nM.

On to `CNc1cc(Nc2cccn([C@@H]3C[C@H]4CCO[C@H]43)c2=O)nn2c(C(=O)NC3CCC4CCOC43)cnc12` (single isomer, unassigned) [Compound 95b], for which the IC50 in assay [1] is above 1000 nM; in assay [2] (setting [3]), at least 1000 nM.

In the case of `[2H]C([2H])([2H])Nc1cc(Nc2cccn(C3CC4(CCOC4)C3)c2=O)nn2c(C(=O)N[C@@H]3C[C@@H]3F)cnc12` (single isomer, unassigned) [Compound 102a], the IC50 in assay [1] and in assay [2] (setting [4]) was 10 to 100 nM each time.

As to `CNc1cc(Nc2cccn(CC3CCCO3)c2=O)nn2c(C(=O)N[C@@H]3C[C@@H]3F)cnc12` (stereo partly drawn) [Compound 107], the IC50 in assay [1] and in assay [2] (setting [4]) was 10 to 100 nM each time.

For `[2H]C([2H])([2H])Nc1cc(Nc2cccc(N3CCCC3=O)n2)nn2c(C(=O)NC3C[C@@H]4CCOC34)cnc12` (mixture of isomers) [Compound 30], in assay [2] (setting [4]), the 50% inhibitory concentration (IC50) lay within 10 to 100 nM.

In the case of `[2H]C([2H])([2H])Nc1cc(Nc2cccn(-c3ccn(C([2H])([2H])[2H])n3)c2=O)nn2c(C(=O)N[C@@H]3C[C@H]4CCO[C@H]43)cnc12` [Compound 53], the IC50 in assay [1] is 10 to 100 nM; in assay [2] (setting [4]), below 10 nM.

With `[2H]C([2H])([2H])Nc1cc(Nc2cccn(C3CC4(CCOC4)C3)c2=O)nc2c(C(=O)N[C@@H]3C[C@H]4CCO[C@H]43)cnn12` (single isomer, unassigned) [Compound 97a], the IC50 in assay [1] and in assay [2] (setting [4]) was 10 to 100 nM each time.

In the case of `[2H]C([2H])([2H])Nc1cc(Nc2cccn(C3CCCC4(COC4)C3)c2=O)nn2c(C(=O)N[C@@H]3C[C@H]4CCO[C@H]43)cnc12` (single isomer, unassigned) [Compound 68a], the IC50 in assay [1] and in assay [2] (setting [4]) was 10 to 100 nM throughout.

`[2H]C([2H])([2H])Nc1cc(Nc2cccn([C@H]3CC[C@H](OC([2H])([2H])[2H])CC3)c2=O)nn2c(C(=O)N[C@@H]3C[C@H]4CCO[C@H]43)cnc12` [Compound 11, N-((1R,5S,7R)-2-oxabicyclo[3.2.0]heptan-7-yl)-6-((1-((1r,4R)-4-(methoxy-d3)cyclohexyl)-2-oxo-1,2-dihydropyridin-3-yl)amino)-8-((methyl-d3)amino)imidazo[1,2-b]pyridazine-3-carboxamide] had an IC50 in assay [1] below 10 nM.

On to `[2H]C([2H])([2H])O[C@H]1C[C@H](n2cccc(Nc3cc(NC)c4ncc(C(=O)N[C@@H]5C[C@H]6CCO[C@H]65)n4n3)c2=O)C1` [Compound 83], for which the 50% inhibitory concentration (IC50) in assay [1] and in assay [2] (setting [4]) was 10 to 100 nM in each case.

As to `CNc1cc(Nc2cccn(-c3ccn(C)n3)c2=O)nc2c(C(=O)NC(C)c3ncco3)cnn12` (racemic) [Compound 48], the IC50 in assay [2] (setting [4]) is 10 to 100 nM.

For the molecule `CNc1cc(Nc2cccn(-c3ccn(C)n3)c2=O)nn2c(C(=O)N[C@@H]3C[C@H]4CCO[C@H]43)cnc12` [Compound 3a, N-((1R,5S,7R)-2-oxabicyclo[3.2.0]heptan-7-yl)-6-((1-(1-methyl-1H-pyrazol-3-yl)-2-oxo-1,2-dihydropyridin-3-yl)amino)-8-(methylamino)imidazo[1,2-b]pyridazine-3-carboxamide], the half-inhibitory concentration (IC50) in assay [2] (setting [4]) was below 10 nM.

Consider `CNc1cc(Nc2cccn(-c3ccccn3)c2=O)nc2c(C(=O)NC(C)c3ncco3)cnn12` (single isomer, unassigned) [Compound 36a], for which, in assay [2] (setting [3]), the IC50 was at least 1000 nM.

Turning to `CNc1cc(Nc2cccn(-c3cc(C)on3)c2=O)nn2c(C(=O)NC3C[C@H]4CCOC34)cnc12` (mixture of isomers) [Compound 56], the half-maximal inhibitory concentration (IC50) in assay [2] (setting [4]) fell in the range of 10 to 100 nM.

Regarding `[2H]C([2H])([2H])NC(=O)c1nnc(NC(=O)C2CC2)cc1Nc1cccc(-c2ncn(C)n2)c1OC` [BMS-986165, reference compound], the IC50 in assay [2] (HEK-Blue IL-23 cells, numeric value (control)) was found to be 5.93 nM.

As to `CNc1cc(Nc2cccn(C3CC(C)(OC)C3)c2=O)nn2c(C(=O)N[C@@H]3C[C@H]4CCO[C@H]43)cnc12` (single isomer, unassigned) [Compound 92b], in assay [2] (setting [3]), the IC50 fell in the range of 10 to 100 nM.

As for `[2H]C([2H])([2H])Nc1cc(Nc2cccn(-c3ccccn3)c2=O)nn2c(C(=O)N[C@@H]3C[C@@H]3F)cnc12` [Compound 39], in assay [2] (setting [3]), the IC50 was below 10 nM.

As for `[2H]C([2H])([2H])Nc1cc(Nc2cccn(-c3ccccn3)c2=O)nn2c(C(=O)N[C@H]3C[C@@H]4CCO[C@@H]43)cnc12` [Compound 4b, N-((1S,5R,7S)-2-oxabicyclo[3.2.0]heptan-7-yl)-8-((methyl-d3)amino)-6-((2-oxo-2H-[1,2′-bipyridin]-3-yl)amino)imidazo[1,2-b]pyridazine-3-carboxamide], the IC50 in assay [2] (setting [4]) was at least 1000 nM.

On to `CNc1cc(Nc2cccn(-c3ccccn3)c2=O)nn2c(C(=O)N[C@@H]3C[C@H]4CCO[C@H]43)cnc12` [Compound 2, N-((1R,5S,7R)-2-oxabicyclo[3.2.0]heptan-7-yl)-8-(methylamino)-6-((2-oxo-2H-[1,2′-bipyridin]-3-yl)amino)imidazo[1,2-b]pyridazine-3-carboxamide], for which, in assay [2] (setting [4]), the concentration for half-maximal inhibition (IC50) lay within 10 to 100 nM.

As for `[2H]C([2H])([2H])Nc1cc(Nc2cccn(-c3ccccn3)c2=O)nn2c(C(=O)N[C@@H]3C[C@H]4CCO[C@H]43)cnc12` [Compound 4a, N-((1R,5S,7R)-2-oxabicyclo[3.2.0]heptan-7-yl)-8-((methyl-d3)amino)-6-((2-oxo-2H-[1,2′-bipyridin]-3-yl)amino)imidazo[1,2-b]pyridazine-3-carboxamide], the IC50 in assay [2] (setting [4]) was 10 to 100 nM.

Regarding `[2H]C([2H])([2H])Nc1cc(Nc2cccn(C3CCC4(CC3)COC4)c2=O)nc2c(C(=O)N[C@@H]3C[C@H]4CCO[C@H]43)cnn12` [Compound 67], the IC50 in assay [2] (setting [4]) lay in the range of 10 to 100 nM.

Regarding `CNc1cc(Nc2cccn(-c3ccn(C)n3)c2=O)nc2c(C(=O)NC3C[C@@H]4CCOC34)cnn12` (mixture of isomers) [Compound 50], the half-inhibitory concentration (IC50) in assay [2] (setting [4]) is 100 to 1000 nM.

Turning to `[2H]C([2H])([2H])Nc1cc(Nc2cccn(C3C[C@H]4CC[C@@H](C3)O4)c2=O)nc2c(C(=O)N[C@@H]3C[C@H]4CCO[C@H]43)cnn12` (stereo partly drawn) [Compound 77], in assay [2] (setting [4]), the IC50 was 10 to 100 nM.

Consider `[2H]C([2H])([2H])Nc1cc(Nc2cccn(C3C[C@H]4CC[C@@H](C3)O4)c2=O)nn2c(C(=O)N[C@@H]3C[C@H]4CCO[C@H]43)cnc12` (stereo partly drawn) [Compound 78], for which the IC50 in assay [2] (setting [4]) was in the range of 10 to 100 nM.

On to `CNc1cc(Nc2cccn(-c3ccn(C)n3)c2=O)nn2c(C(=O)N[C@H]3C[C@@H]4CCO[C@@H]43)cnc12` [Compound 3b, N-((1S,5R,7S)-2-oxabicyclo[3.2.0]heptan-7-yl)-6-((1-(1-methyl-1H-pyrazol-3-yl)-2-oxo-1,2-dihydropyridin-3-yl)amino)-8-(methylamino)imidazo[1,2-b]pyridazine-3-carboxamide], for which, in assay [2] (setting [4]), the IC50 is 100 to 1000 nM.

Regarding `CNc1cc(Nc2cccn(-c3nn(C)cc3F)c2=O)nn2c(C(=O)N[C@@H]3C[C@@H]3F)cnc12` [Compound 60], in assay [2] (setting [4]), the IC50 lay within 10 to 100 nM.

Consider `[2H]C([2H])([2H])Nc1cc(Nc2cccn(C3CCC4(CC3)COC4)c2=O)nc2c(C(=O)N[C@@H]3C[C@@H]3F)cnn12` [Compound 74], for which the IC50 in assay [2] (setting [4]) lay within 10 to 100 nM.

Consider `[2H]C([2H])([2H])Nc1cc(Nc2cccn([C@H]3CC[C@@H](OC)CC3)c2=O)nn2c(C(=O)N[C@@H]3C[C@@H]3F)cnc12` [Compound 71], for which, in assay [2] (setting [4]), the half-inhibitory concentration (IC50) fell in the range of 10 to 100 nM.

Values taken from patent US20240335443A1, “IMIDAZOLOPYRIDAZINE OR PYRAZOLOPYRIMIDINE COMPOUNDS AND COMPOSITIONS” (Anrui Biomedical Technology (Guangzhou) Co., Ltd., priority 2021, published 2024).
